From paper PMC4890880 (ACS infectious diseases, 2016)
Like-named read-outs stand apart in the source and are kept apart here.

What was measured:
HepG2-A16-CD81EGFP cells = test: cells; conditions: Homo sapiens; for IC50: HepG2, read-out: Tox IC50; for inhibition at 50 µM: HepG2, read-out: Tox max inhibition (%) @ 50 uM
[1] = test system: Plasmodium berghei (Pb-Luc) exoerythrocytic-stage parasites; test: microbe, parasite or virus in culture; conditions: for IC50: read-out: PbLuc IC50, dose response, 1/3 dilutions, max conc. 10 or 50 uM, unit inferred
[2] = HepG2, read-out: HepG2 Tox% @ 50 uM rep1
[3] = HepG2, read-out: HepG2 Tox% @ 50 uM rep2
[4] = read-out: Inhibition% @ 50 uM rep1
[5] = read-out: Inhibition% @ 50 uM rep2
[6] = read-out: PbLuc max inhibition (%) @ 50 uM

SMILES | cytotoxicity at 50 µM (HepG2-A16-CD81EGFP cells; [2]) [%] | cytotoxicity at 50 µM (HepG2-A16-CD81EGFP cells; [3]) [%] | IC50 (HepG2-A16-CD81EGFP cells) [µM] | inhibition at 50 µM (HepG2-A16-CD81EGFP cells) [%] | inhibition at 50 µM [1, 4] [%] | inhibition at 50 µM [1, 5] [%] | IC50 [1] [µM] | inhibition at 50 µM [1, 6] [%]
CCN(CC)CCn1c(=N)n(CC(O)c2ccc(Cl)c(Cl)c2)c2ccccc21 (stereo not drawn) [MMV000248] | 101 | 102 | 27.1 | 98 | 103 | 105 | 8.5 | 99
Cc1ccc2nc(C)cc(Nc3cccc(C(F)(F)F)c3)c2c1 [MMV000326] | 100 |  |  |  | 103 | 103 |  | 
Oc1ccc(Br)cc1CN1CCN(Cc2cccc(F)c2)CC1 [MMV000356] | 64 |  |  |  | 100 | 92 |  | 
CC(C)(C)c1ccc2c(c1)CN(Cc1ccc(Cl)cc1)CO2 [MMV000442] | 97 |  |  |  | 100 | 101 |  | 
CCCCCCn1c(=N)n(CC(O)COc2cccc(C)c2)c2ccccc21 (stereo not drawn) [MMV000445] | 99 |  | 13.7 | 99 | 102 | 103 | 4.75 | 100
CC(O)(c1ccc(Cl)cc1)C(CN1CCCCC1)c1ccccc1 (stereo not drawn) [MMV000620] | 63 | 90 |  |  | 101 | 102 |  | 
COc1ccc(NC(=O)C2c3ccccc3C(=O)N(CC(C)C)C2c2cccs2)cc1Cl (stereo not drawn) [MMV000642] | 50 | 30 | > 50 | 24 | 104 | 106 | 17 | 97
COc1ccc(NC(=O)C2c3ccccc3C(=O)N(CC(C)C)C2c2cccs2)cc1 (stereo not drawn) [MMV000662] | 37 | 50 | > 50 | 37 | 102 | 106 | 17.5 | 98
Cc1ccc(C2CC(C(F)(F)F)n3nc(C(=O)N4CCN(C(c5ccccc5)c5ccccc5)CC4)cc3N2)cc1 (stereo not drawn) [MMV000699] | 49 |  |  |  | 102 | 101 |  | 
CCOC(=O)c1cnc2ccc(OC)cc2c1Nc1ccc(N2CCN(C)CC2)cc1 [MMV000704] | 97 |  |  |  | 101 | 102 |  | 
Cc1ccnc(NC(c2cccc(OCc3ccccc3)c2)c2ccc3cccnc3c2O)c1 (stereo not drawn) [MMV000720] | 99 |  | 5.05 | 99 | 103 | 103 | 1.28 | 100
Oc1ccc(-c2nc(-c3ccc4oc5ccc(-c6[nH]c(-c7ccc(O)cc7)nc6-c6ccccc6)cc5c4c3)c(-c3ccccc3)[nH]2)cc1 [MMV000753] | 101 |  | > 50 | 39 | 104 | 104 | 5.88 | 99
Oc1c(CN2CCN(c3ccccc3F)CC2)cc(Br)c2cccnc12 [MMV000760] | 95 |  | 11.5 | 78 | 102 | 101 | 1.84 | 93
CCCOCc1cc(CN2CCN(c3cccc(Cl)c3)CC2)c(O)c2ncccc12 [MMV000787] | 93 |  | 3.49 | 100 | 100 | 100 | 0.94 | 101
CC(C)OCc1cc(CN2CCN(c3cccc(Cl)c3)CC2)c(O)c2ncccc12 [MMV000788] | 99 | 100 | 3.01 | 94 | 103 | 106 | 0.99 | 101
Cc1ccc(NC(=O)Nc2cccc(Cl)c2)cc1F [MMV000911] | 85 | 89 |  |  | 104 | 105 |  | 
CC(C)c1ccc(CNCC(O)c2ccccc2)cc1 (stereo not drawn) [MMV001049] | 96 | 97 |  |  | 100 | 102 |  | 
CC1CC(C)CN(C(=O)c2ccc(Cl)cc2Cl)C1 (stereo not drawn) [MMV001344] | 74 | 88 |  |  | 98 | 98 |  | 
CCN(CC)CCNc1ccnc2cc(Cl)ccc12 [MMV006087] | 53 | 87 |  |  | 101 | 103 |  | 
c1ccc(CNc2nc(Nc3ccccc3)nc3ccccc23)cc1 [MMV006169] | 101 |  |  |  | 103 | 104 |  | 
